Structures can show the parent of a compound that is named as a salt.
Biological target: KRas G12D (Homo sapiens (Human), UniProt P01116, G12D)
Assay: KRas G12D Binding Assay (TR-FRET displacement of Cy5 labelled tracer)
Details: GDP-loaded KRAS G12D (amino acids 1:169), 60 minute incubation at 22° C.
Description: After a 60 minute incubation at 22° C., the reaction was measured using a PerkinElmer EnVision multimode plate reader via TR-FRET dual wavelength detection, and the percent of control (POC) calculated using a ratiometric emission factor. […] The POC values were fit to a 4-parameter logistic curve and the IC50 value was determined as the concentration where the curve crosses 50 POC.
ND stands for “not determined.”

Chain of KRas G12D (P01116 other isoform, or with tags, fused parts or gaps G12D): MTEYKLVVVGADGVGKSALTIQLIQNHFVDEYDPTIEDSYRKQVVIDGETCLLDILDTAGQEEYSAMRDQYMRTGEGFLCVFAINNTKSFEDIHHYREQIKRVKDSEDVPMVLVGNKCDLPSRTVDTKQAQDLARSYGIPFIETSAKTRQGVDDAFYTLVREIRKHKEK

| Compound | IC50 [nM] |
| --- | --- |
| CSc1cccc2cccc(-c3ncc4c(N5C[C@H]6CC[C@@H](C5)N6)nc(OCC56CCCN5CCC6)nc4c3F)c12 [Example 199, 4-((1R,5S)-3,8-diazabicyclo[3.2.1]octan-3-yl)-8-fluoro-7-(8-(methylthio)naphthalen-1-yl)-2-((tetrahydro-1H-pyrrolizin-7a(5H)-yl)methoxy)pyrido[4,3-d]pyrimidine] | 2 |
| Fc1c(-c2cccc3cccc(Cl)c23)ncc2c(N3C[C@H]4CC[C@@H](C3)N4)nc(OCC34CCCN3CCOC4)nc12 (stereo partly drawn) [Example 200, 8a-(((4-((1R,5S)-3,8-diazabicyclo[3.2.1]octan-3-yl)-7-(8-chloronaphthalen-1-yl)-8-fluoropyrido[4,3-d]pyrimidin-2-yl)oxy)methyl)hexahydro-1H-pyrrolo[2,1-c][1,4]oxazine] | 230 |
| C=Cc1cccc2cccc(-c3ncc4c(N5C[C@H]6CC[C@@H](C5)N6)nc(OC[C@@H]5CCCN5C)nc4c3F)c12 [Example 201, 4-((1R,5S)-3,8-diazabicyclo[3.2.1]octan-3-yl)-8-fluoro-2-(((S)-1-methylpyrrolidin-2-yl)methoxy)-7-(8-vinyInaphthalen-1-yl)pyrido[4,3-d]pyrimidine] | 70.2 |
| COCCO[C@@H]1C[C@@H](COc2nc(N3C[C@H]4CC[C@@H](C3)N4)c3cnc(-c4cccc5cccc(Cl)c45)c(F)c3n2)N(C)C1 [Example 202, 4-((1R,5S)-3,8-diazabicyclo[3.2.1]octan-3-yl)-7-(8-chloronaphthalen-1-yl)-8-fluoro-2-(((2S,4R)-4-(2-methoxyethoxy)-1-methylpyrrolidin-2-yl)methoxy)pyrido[4,3-d]pyrimidine] | 94 |
| Fc1c(-c2cncc3cccc(Cl)c23)ncc2c(N3C[C@H]4CC[C@@H](C3)N4)nc(OC[C@]34CCCN3C[C@@H](F)C4)nc12 [Example 203, 4-((1R,5S)-3,8-diazabicyclo[3.2.1]octan-3-yl)-7-(5-chloroisoquinolin-4-yl)-8-fluoro-2-(((2S,7aR)-2-fluorotetrahydro-1H-pyrrolizin-7a(5H)-yl)methoxy)pyrido[4,3-d]pyrimidine] | 28.1 |
| C#Cc1cccc2cncc(-c3ncc4c(N5C[C@H]6CC[C@@H](C5)N6)nc(OC[C@]56CCCN5C[C@@H](F)C6)nc4c3F)c12 [Example 204, 4-((1R,5S)-3,8-diazabicyclo[3.2.1]octan-3-yl)-7-(5-ethynylisoquinolin-4-yl)-8-fluoro-2-(((2S,7aR)-2-fluorotetrahydro-1H-pyrrolizin-7a(5H)-yl)methoxy)pyrido[4,3-d]pyrimidine] | 4.4 |
| C#Cc1cccc2cccc(-c3ncc4c(N5C[C@H]6CC[C@@H](C5)N6)nc(OC[C@]56CCCN5C[C@@H](F)C6)nc4c3F)c12 [Example 205, 4-((1R,5S)-3,8-diazabicyclo[3.2.1]octan-3-yl)-7-(8-ethynylnaphthalen-1-yl)-8-fluoro-2-(((2S,7aR)-2-fluorotetrahydro-1H-pyrrolizin-7a(5H)-yl)methoxy)pyrido[4,3-d]pyrimidine] | 1.2 |
| C#Cc1cccc2cccc(-c3ncc4c(N5C[C@H]6CC[C@@H](C5)N6)nc(OC[C@@H]5CCCN5C)nc4c3F)c12 [Example 206, 4-((1R,5S)-3,8-diazabicyclo[3.2.1]octan-3-yl)-7-(8-ethynylnaphthalen-1-yl)-8-fluoro-2-(((S)-1-methylpyrrolidin-2-yl)methoxy)pyrido[4,3-d]pyrimidine] | 5.1 |
| Cc1ccc2c(-c3ncc4c(N5C[C@H]6CC[C@@H](C5)N6)nc(OC[C@@H]5CCCN5C)nc4c3F)cccc2c1 [Example 207, 4-((1R,5S)-3,8-diazabicyclo[3.2.1]octan-3-yl)-8-fluoro-7-(6-methylnaphthalen-1-yl)-2-(((S)-1-methylpyrrolidin-2-yl)methoxy)pyrido[4,3-d]pyrimidine] | 4910 |
| CN1C[C@H](NC(=O)c2cccc(S(=O)(=O)F)c2)C[C@H]1COc1nc(N2C[C@H]3CC[C@@H](C2)N3)c2cnc(-c3cccc4cccc(Cl)c34)c(F)c2n1 [Example 211, 3-(((3R,5S)-5-(((4-((1R,5S)-3,8-diazabicyclo[3.2.1]octan-3-yl)-7-(8-chloronaphthalen-1-yl)-8-fluoropyrido[4,3-d]pyrimidin-2-yl)oxy)methyl)-1-methylpyrrolidin-3-yl)carbamoyl)benzenesulfonyl fluoride tris(2,2,2-trifluoroacetate)] | 212 |
| O=C(NCCOc1nc(N2C[C@H]3CC[C@@H](C2)N3)c2cnc(-c3cc(O)cc4ccccc34)c(F)c2n1)c1ccc(S(=O)(=O)F)cc1 [Example 212, 4-((2-((4-((1R,5S)-3,8-diazabicyclo[3.2.1]octan-3-yl)-8-fluoro-7-(3-hydroxynaphthalen-1-yl)pyrido[^4,3-d]pyrimidin-2-yl)oxy)ethyl)carbamoyl)benzenesulfonyl fluoride bis(2,2,2-trifluoroacetate)] | 1220 |
| OCC12CCCN1CC(Oc1nc(N3C[C@H]4CC[C@@H](C3)N4)c3cnc(-c4cccc5cccc(Cl)c45)c(F)c3n1)C2 (stereo partly drawn) [Example 222, (2-((4-((1R,5S)-3,8-diazabicyclo[3.2.1]octan-3-yl)-7-(8-chloronaphthalen-1-yl)-8-fluoropyrido[4,3-d]pyrimidin-2-yl)oxy)tetrahydro-1H-pyrrolizin-7a(5H)-yl)methanol bis-TFA salt] | 1130 |
| O[C@H]1CN2CCC[C@@]2(COc2nc(N3CC4CCC(C3)N4)c3cnc(-c4cccc5cccc(Cl)c45)c(F)c3n2)C1 [Example 223, 7a-(((4-((1R,5S)-3,8-diazabicyclo[3.2.1]octan-3-yl)-7-(8-chloronaphthalen-1-yl)-8-fluoropyrido[4,3-d]pyrimidin-2-yl)oxy)methyl)hexahydro-1H-pyrrolizin-2-ol bis-2,2,2-trifluoroacetate] | 7.1 |
| CO[C@H]1CN2CCC[C@]2(COc2nc(N3CC4CCC(C3)N4)c3cnc(-c4cccc5cccc(Cl)c45)c(F)c3n2)C1 [Example 225, 4-((1R,5S)-3,8-diazabicyclo[3.2.1]octan-3-yl)-7-(8-chloronaphthalen-1-yl)-8-fluoro-2-((2-methoxytetrahydro-1H-pyrrolizin-7a(5H)-yl)methoxy)pyrido[4,3-d]pyrimidine bis-2,2,2-trifluoroacetate] | 9.2 |
| Fc1c(-c2cccc3cccc(Cl)c23)ncc2c(N3CC4CCC(C3)N4)nc(OCC34CCCN3C[C@H](F)C4)nc12 (stereo partly drawn) [Example 226, 4-((1R,5S)-3,8-diazabicyclo[3.2.1]octan-3-yl)-7-(8-chloronaphthalen-1-yl)-8-fluoro-2-((2-fluorotetrahydro-1H-pyrrolizin-7a(5H)-yl)methoxy)pyrido[4,3-d]pyrimidine bis-hydrochloride] | 25.9 |
| CC1(C)CN2CCCC2(COc2nc(N3CC4CCC(C3)N4)c3cnc(-c4cccc5cccc(Cl)c45)c(F)c3n2)C1 [Example 228, 4-((1R,5S)-3,8-diazabicyclo[3.2.1]octan-3-yl)-7-(8-chloronaphthalen-1-yl)-2-((2,2-dimethyltetrahydro-1H-pyrrolizin-7a(5H)-yl)methoxy)-8-fluoropyrido[4,3-d]pyrimidine bis-2,2,2-trifluoroacetate] | 87.7 |
| Fc1c(-c2ccccc2OC(F)(F)F)ncc2c(N3C[C@H]4CC[C@@H](C3)N4)nc(OCC34CCCN3CCC4)nc12 [Example 229, 4-((1R,5S)-3,8-diazabicyclo[3.2.1]octan-3-yl)-8-fluoro-2-((tetrahydro-1H-pyrrolizin-7a(5H)-yl)methoxy)-7-(2-(trifluoromethoxy)phenyl)pyrido[4,3-d]pyrimidine bis-hydrochloride] | 121 |
| Fc1c(-c2cccc(Cl)c2OC(F)(F)F)ncc2c(N3CC4CCC(C3)N4)nc(OCC34CCCN3CCC4)nc12 [Example 230, 4-((1R,5S)-3,8-diazabicyclo[3.2.1]octan-3-yl)-7-(3-chloro-2-(trifluoromethoxy)phenyl)-8-fluoro-2-((tetrahydro-1H-pyrrolizin-7a(5H)-yl)methoxy)pyrido[4,3-d]pyrimidine bis(2,2,2-trifluoroacetate] | 1430 |
| C#Cc1cccc2cc(OC)cc(-c3ncc4c(N5C[C@H]6CC[C@@H](C5)N6)nc(OCC56CCCN5CCC6)nc4c3F)c12 [Example 231, 4-((1R,5S)-3,8-diazabicyclo[3.2.1]octan-3-yl)-7-(8-ethynyl-3-methoxynaphthalen-1-yl)-8-fluoro-2-((hexahydro-1H-pyrrolizin-7a-yl)methoxy)pyrido[4,3-d]pyrimidine] | 19.8 |
| C#Cc1c(F)ccc2cc(O)cc(-c3ncc4c(N5C[C@H]6CC[C@@H](C5)N6)nc(OCC56CCCN5CCC6)nc4c3F)c12 [Example 232, 4-(4-((1R,5S)-3,8-diazabicyclo[3.2.1]octan-3-yl)-8-fluoro-2-((tetrahydro-1H-pyrrolizin-7a(5H)-yl)methoxy)pyrido[4,3-d]pyrimidin-7-yl)-5-ethynyl-6-fluoronaphthalen-2-ol] | 0.6 |
| c1ccc2c(-c3cc4nc(OCC56CCCN5CCC6)nc(N5C[C@H]6CC[C@@H](C5)N6)c4cn3)cccc2c1 [Example 233, 4-((1R,5S)-3,8-diazabicyclo[3.2.1]octan-3-yl)-7-(naphthalen-1-yl)-2-((tetrahydro-1H-pyrrolizin-7a(5H)-yl)methoxy)pyrido[4,3-d]pyrimidine] | 387 |
| Fc1c(-c2cccc3cccc(F)c23)ncc2c(N3C[C@H]4CC[C@@H](C3)N4)nc(OCC34CCCN3CCC4)nc12 [Example 234, 4-((1R,5S)-3,8-diazabicyclo[3.2.1]octan-3-yl)-8-fluoro-7-(8-fluoronaphthalen-1-yl)-2-((tetrahydro-1H-pyrrolizin-7a(5H)-yl)methoxy)pyrido[4,3-d]pyrimidine] | 5.9 |
| Fc1c(-c2cccc3cccc(Br)c23)ncc2c(N3C[C@H]4CC[C@@H](C3)N4)nc(OCC34CCCN3CCC4)nc12 [Example 235, 4-((1R,5S)-3,8-diazabicyclo[3.2.1]octan-3-yl)-7-(8-bromonaphthalen-1-yl)-8-fluoro-2-((tetrahydro-1H-pyrrolizin-7a(5H)-yl)methoxy)pyrido[4,3-d]pyrimidine] | 1.2 |

From US20230279025A1, “KRAS G12D INHIBITORS” (Mirati Therapeutics, Inc., priority 2020, published 2023)
